Two molecules from paper PMC9851200, “Multiparameter phenotypic screening for endogenous TFEB and TFE3 translocation identifies novel chemical series modulating lysosome function” (Autophagy, 2022) can be followed below.

Molecules are shown by their SMILES.

Holding throughout (assay type): binding
The target in assay [1] is kinases (KINOMEscan panel) (Homo sapiens, UniProt P04626). Conditions: kinase ERBB2; NEW KINOMEscan.
For assay [2], the target named is kinases (KINOMEscan panel) (Homo sapiens, UniProt P07949, V804M). Conditions: kinase RET(V804M); NEW KINOMEscan.
kinases (KINOMEscan panel) (Homo sapiens, UniProt P07949, V804M), sequence (P07949 29-1114 V804M): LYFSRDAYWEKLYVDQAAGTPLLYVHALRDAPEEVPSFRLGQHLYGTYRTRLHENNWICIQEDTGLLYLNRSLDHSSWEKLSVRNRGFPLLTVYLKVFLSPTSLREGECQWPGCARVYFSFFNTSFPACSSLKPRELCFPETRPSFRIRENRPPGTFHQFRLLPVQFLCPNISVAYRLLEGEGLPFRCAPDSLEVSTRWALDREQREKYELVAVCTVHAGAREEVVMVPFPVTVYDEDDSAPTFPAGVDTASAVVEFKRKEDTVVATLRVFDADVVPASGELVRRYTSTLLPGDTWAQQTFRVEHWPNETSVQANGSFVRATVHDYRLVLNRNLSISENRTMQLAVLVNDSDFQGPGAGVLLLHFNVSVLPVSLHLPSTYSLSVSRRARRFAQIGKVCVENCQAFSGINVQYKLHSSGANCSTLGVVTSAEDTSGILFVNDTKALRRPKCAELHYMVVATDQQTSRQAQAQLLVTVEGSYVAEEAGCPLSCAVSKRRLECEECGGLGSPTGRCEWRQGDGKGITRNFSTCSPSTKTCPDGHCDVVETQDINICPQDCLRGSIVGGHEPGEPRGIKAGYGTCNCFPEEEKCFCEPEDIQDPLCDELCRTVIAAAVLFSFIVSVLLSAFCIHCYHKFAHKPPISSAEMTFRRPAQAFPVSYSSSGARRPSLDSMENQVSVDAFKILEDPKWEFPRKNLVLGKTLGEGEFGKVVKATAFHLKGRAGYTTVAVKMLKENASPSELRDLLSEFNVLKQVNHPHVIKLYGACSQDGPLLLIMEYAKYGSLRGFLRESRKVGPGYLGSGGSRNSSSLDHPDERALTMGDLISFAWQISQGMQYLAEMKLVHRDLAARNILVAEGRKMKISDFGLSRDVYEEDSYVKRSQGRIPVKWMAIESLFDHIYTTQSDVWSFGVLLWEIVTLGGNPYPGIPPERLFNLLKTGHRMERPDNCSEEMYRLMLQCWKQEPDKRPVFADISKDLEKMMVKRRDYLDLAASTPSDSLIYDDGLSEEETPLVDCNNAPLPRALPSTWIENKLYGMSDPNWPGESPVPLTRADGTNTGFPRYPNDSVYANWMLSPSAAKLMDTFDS
In assay [3] the target is kinases (KINOMEscan panel) (Homo sapiens, UniProt P09619). Conditions: NEW KINOMEscan.
Assay [4] addresses kinases (KINOMEscan panel) (Homo sapiens, UniProt P16591). Conditions: FER; NEW KINOMEscan.
The target of assay [5] is kinases (KINOMEscan panel) (Homo sapiens, UniProt P36888, D835V). Conditions: NEW KINOMEscan.
The target of assay [6] is kinases (KINOMEscan panel) (Homo sapiens, UniProt P36888, D835Y). Conditions: kinase FLT3(D835Y); NEW KINOMEscan.
The target in assay [7] is T1, kinases (KINOMEscan panel) (Homo sapiens, UniProt P51813).
T1 sequence (P51813 1-675): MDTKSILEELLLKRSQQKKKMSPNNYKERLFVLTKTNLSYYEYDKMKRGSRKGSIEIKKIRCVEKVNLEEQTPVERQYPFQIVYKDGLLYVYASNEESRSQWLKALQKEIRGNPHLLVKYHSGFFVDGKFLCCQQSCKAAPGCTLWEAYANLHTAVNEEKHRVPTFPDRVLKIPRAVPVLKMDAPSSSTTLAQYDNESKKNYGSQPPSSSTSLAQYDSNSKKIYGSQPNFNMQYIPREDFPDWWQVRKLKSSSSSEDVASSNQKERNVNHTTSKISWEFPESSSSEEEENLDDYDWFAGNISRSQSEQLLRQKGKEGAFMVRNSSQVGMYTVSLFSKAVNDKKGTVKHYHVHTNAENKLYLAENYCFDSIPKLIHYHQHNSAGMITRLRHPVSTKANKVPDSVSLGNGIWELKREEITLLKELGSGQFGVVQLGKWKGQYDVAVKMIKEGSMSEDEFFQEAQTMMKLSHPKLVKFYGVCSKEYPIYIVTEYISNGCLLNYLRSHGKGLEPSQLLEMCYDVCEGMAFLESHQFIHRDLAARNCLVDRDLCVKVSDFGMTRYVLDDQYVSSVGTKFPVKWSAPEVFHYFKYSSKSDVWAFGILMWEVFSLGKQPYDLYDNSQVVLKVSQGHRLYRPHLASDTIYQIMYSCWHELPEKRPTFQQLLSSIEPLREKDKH
Conditions: BMX; NEW KINOMEscan.

Assay [8] has as its target kinases (KINOMEscan panel) (Homo sapiens, UniProt Q15746). Conditions: kinase MYLK; NEW KINOMEscan.
Assay [9] concerns the target kinases (KINOMEscan panel) (Homo sapiens, UniProt Q16584). Conditions: kinase MAP3K11; NEW KINOMEscan.
Assay [10] addresses T2, kinases (KINOMEscan panel) (Homo sapiens, UniProt Q8NFD2).
T2 sequence (Q8NFD2 1-765): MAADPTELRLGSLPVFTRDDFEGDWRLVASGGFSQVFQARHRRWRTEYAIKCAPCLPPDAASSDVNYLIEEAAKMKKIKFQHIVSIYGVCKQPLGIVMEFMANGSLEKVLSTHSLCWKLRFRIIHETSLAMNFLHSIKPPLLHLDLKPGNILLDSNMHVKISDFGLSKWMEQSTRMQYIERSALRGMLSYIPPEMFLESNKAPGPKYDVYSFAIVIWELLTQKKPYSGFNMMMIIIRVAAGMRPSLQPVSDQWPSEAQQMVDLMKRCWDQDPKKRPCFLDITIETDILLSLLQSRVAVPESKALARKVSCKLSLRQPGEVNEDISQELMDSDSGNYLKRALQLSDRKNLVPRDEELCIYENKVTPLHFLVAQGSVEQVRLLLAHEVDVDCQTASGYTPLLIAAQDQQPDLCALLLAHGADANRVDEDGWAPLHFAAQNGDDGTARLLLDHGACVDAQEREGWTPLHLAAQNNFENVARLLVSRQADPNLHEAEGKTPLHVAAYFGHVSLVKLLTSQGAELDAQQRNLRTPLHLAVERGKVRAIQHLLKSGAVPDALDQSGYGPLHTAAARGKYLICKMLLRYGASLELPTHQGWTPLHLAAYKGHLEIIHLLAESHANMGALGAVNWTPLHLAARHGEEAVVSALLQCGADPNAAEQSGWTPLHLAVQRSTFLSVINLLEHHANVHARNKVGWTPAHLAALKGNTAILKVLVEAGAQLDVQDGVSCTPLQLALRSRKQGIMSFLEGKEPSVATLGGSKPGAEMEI
Conditions: ANKK1; NEW KINOMEscan.

The target in assay [11] is kinases (KINOMEscan panel) (Homo sapiens, UniProt Q9BYT3). Conditions: kinase STK33; NEW KINOMEscan.
kinases (KINOMEscan panel) (Homo sapiens, UniProt Q9BYT3), sequence (Q9BYT3 whole entry): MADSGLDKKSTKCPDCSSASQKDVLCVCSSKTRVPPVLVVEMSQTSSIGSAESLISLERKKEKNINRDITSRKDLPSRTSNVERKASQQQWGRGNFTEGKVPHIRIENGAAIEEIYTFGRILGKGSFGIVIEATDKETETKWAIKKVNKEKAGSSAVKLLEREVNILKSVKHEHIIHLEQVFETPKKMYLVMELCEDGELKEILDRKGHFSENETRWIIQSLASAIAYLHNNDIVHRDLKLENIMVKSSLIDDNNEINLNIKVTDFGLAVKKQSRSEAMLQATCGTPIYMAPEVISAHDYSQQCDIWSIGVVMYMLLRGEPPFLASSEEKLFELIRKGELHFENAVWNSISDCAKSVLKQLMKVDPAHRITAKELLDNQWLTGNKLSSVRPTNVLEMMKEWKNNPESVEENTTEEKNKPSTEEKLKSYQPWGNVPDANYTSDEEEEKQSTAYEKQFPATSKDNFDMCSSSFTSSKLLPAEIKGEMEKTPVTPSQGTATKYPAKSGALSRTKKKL
For assay [12], the target named is kinases (KINOMEscan panel) (Homo sapiens, UniProt Q9NYY3). Conditions: PLK2; NEW KINOMEscan.
kinases (KINOMEscan panel) (Homo sapiens, UniProt Q9NYY3), sequence (Q9NYY3 whole entry): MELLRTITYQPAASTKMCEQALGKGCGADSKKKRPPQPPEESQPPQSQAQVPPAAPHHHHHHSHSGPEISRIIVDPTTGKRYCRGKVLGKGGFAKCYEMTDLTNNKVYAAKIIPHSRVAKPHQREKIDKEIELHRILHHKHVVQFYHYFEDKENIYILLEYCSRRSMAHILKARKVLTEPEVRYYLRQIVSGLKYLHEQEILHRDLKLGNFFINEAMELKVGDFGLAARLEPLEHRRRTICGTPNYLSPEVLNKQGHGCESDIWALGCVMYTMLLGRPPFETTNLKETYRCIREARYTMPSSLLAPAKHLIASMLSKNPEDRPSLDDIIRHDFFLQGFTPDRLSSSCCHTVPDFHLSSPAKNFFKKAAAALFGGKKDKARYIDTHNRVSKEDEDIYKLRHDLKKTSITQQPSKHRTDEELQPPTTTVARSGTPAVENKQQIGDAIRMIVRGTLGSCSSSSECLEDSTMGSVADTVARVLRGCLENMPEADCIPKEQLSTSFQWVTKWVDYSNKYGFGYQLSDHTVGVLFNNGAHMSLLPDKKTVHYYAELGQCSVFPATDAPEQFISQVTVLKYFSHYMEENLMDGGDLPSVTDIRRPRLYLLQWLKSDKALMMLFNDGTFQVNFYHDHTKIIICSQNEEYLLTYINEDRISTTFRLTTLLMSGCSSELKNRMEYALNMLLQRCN
Assay [13] concerns the target kinases (KINOMEscan panel) (Homo sapiens, UniProt Q9Y243). Conditions: kinase AKT3; NEW KINOMEscan.

kinases (KINOMEscan panel) (Homo sapiens, UniProt P16591), sequence (P16591 whole entry): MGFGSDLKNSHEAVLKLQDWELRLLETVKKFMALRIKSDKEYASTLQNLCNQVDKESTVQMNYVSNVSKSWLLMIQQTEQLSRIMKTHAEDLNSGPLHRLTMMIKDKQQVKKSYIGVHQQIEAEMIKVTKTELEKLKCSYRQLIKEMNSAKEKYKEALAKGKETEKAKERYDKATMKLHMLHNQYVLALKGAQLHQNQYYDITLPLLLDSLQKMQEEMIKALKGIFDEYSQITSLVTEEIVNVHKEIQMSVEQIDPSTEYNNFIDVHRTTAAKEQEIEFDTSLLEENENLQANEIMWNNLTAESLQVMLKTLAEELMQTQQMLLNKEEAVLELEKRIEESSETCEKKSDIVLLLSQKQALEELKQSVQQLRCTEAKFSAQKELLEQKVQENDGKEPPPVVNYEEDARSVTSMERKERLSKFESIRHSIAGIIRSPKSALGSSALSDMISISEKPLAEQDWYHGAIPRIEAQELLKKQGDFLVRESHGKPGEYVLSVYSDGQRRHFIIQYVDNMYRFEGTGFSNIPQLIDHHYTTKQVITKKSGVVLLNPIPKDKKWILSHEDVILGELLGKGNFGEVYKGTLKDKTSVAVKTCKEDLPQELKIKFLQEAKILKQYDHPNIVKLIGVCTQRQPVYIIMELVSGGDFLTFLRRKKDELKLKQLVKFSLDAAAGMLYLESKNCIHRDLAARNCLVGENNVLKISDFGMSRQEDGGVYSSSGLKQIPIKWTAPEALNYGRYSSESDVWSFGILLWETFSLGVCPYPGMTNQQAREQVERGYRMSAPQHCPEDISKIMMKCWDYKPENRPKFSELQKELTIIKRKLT
kinases (KINOMEscan panel) (Homo sapiens, UniProt P04626), sequence (P04626 23-1255): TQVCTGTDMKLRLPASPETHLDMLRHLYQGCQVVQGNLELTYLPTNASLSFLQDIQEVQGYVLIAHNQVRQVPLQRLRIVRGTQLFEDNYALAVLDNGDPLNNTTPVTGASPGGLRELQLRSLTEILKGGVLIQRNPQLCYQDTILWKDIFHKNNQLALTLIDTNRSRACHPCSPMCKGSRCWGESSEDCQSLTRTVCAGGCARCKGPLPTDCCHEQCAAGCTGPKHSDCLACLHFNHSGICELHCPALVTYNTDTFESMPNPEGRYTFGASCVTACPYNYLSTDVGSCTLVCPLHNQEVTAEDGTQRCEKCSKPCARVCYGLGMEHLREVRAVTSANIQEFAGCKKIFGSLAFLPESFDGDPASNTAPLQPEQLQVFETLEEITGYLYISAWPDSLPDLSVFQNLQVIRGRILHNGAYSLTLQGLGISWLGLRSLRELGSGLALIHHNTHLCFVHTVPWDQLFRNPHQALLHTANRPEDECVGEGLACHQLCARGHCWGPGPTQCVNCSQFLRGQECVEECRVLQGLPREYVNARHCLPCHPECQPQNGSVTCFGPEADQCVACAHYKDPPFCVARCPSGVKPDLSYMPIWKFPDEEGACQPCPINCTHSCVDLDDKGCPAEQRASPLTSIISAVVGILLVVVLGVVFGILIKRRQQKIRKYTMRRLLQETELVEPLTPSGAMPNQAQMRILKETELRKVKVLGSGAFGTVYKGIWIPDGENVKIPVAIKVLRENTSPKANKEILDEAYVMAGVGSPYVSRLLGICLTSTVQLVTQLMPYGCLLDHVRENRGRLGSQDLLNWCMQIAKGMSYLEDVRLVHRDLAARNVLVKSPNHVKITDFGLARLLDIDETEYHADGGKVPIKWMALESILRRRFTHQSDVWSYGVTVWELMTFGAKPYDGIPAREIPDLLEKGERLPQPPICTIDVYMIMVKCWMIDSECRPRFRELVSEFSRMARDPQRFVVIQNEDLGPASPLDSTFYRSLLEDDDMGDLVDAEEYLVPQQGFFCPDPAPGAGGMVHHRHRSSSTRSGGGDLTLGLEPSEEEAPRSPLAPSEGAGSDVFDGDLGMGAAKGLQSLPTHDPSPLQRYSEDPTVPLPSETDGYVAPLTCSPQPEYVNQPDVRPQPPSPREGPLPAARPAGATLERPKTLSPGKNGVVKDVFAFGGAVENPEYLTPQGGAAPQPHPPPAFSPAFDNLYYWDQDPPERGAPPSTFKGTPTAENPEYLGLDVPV
kinases (KINOMEscan panel) (Homo sapiens, UniProt Q9Y243), sequence (Q9Y243 whole entry): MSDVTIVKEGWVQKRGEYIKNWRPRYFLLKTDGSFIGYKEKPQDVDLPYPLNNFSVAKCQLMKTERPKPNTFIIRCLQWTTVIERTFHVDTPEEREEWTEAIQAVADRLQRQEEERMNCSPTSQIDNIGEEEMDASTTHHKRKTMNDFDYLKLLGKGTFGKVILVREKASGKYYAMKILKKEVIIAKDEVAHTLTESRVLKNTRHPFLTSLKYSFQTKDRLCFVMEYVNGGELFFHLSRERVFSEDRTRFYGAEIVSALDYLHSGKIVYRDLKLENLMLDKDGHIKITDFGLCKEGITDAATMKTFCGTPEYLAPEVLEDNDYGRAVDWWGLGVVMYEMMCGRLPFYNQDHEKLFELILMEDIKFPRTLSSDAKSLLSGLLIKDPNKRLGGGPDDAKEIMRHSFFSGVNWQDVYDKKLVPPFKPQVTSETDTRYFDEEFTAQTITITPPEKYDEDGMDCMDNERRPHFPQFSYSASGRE

As for `Cc1cccc(-c2nc(N(C)c3ccc4ncsc4c3)c3ccccc3n2)n1` [NK-161], the “KINOMEscan ERBB2” value in assay [1] was found to be 0. Besides, in assay [2], the “KINOMEscan RET(V804M)” value was determined as 0. In addition, the “KINOMEscan PDGFRB” value in assay [3] is 21. Further, the “KINOMEscan FER” value in assay [4] was 0. In addition, in assay [5], the “KINOMEscan FLT3(D835V)” value came out at 30. The “KINOMEscan FLT3(D835Y)” value in assay [6] amounted to 3. Besides, the “KINOMEscan BMX” value in [7] is listed as 6. Further, the “KINOMEscan MYLK” value in [8] is 3. The “KINOMEscan MAP3K11” value in assay [9] was determined as 0. For the same molecule, the “KINOMEscan ANKK1” value in assay [10] came out at 0. Also, the “KINOMEscan STK33” value in assay [11] was found to be 0. Also, in [12], the “KINOMEscan PLK2” value came out at 0. Moreover, the “KINOMEscan AKT3” value in [13] is on record as 0.
On to `Cc1cccc(-c2nc(Nc3ccc4nn(C)cc4c3)c3ccccc3n2)n1` [NK167], for which, in assay [1], the “KINOMEscan ERBB2” value came to 0. Moreover, in [2], the “KINOMEscan RET(V804M)” value was determined as 0. The “KINOMEscan PDGFRB” value in assay [3] is reported as 19. The “KINOMEscan FER” value in assay [4] worked out at 0. In addition, the “KINOMEscan FLT3(D835V)” value in assay [5] worked out at 19. For the same molecule, the “KINOMEscan FLT3(D835Y)” value in [6] is 0. The “KINOMEscan BMX” value in [7] came out at 0. The “KINOMEscan MYLK” value in [8] turned out to be 19. Moreover, the “KINOMEscan MAP3K11” value in assay [9] is given as 0. Moreover, the “KINOMEscan ANKK1” value in assay [10] amounted to 0. Besides, the “KINOMEscan STK33” value in [11] was determined as 0. Further, in assay [12], the “KINOMEscan PLK2” value is listed as 0. Further, in assay [13], the “KINOMEscan AKT3” value amounted to 0.
